Assays:
saphenous artery = experiment: Vasorelaxant effect in vitro (phenylephrine-contracted artery rings); parameters: species or system Rabbits; details: Oryctolagus cuniculus; concentration reducing phenylephrine-induced contraction of rabbit saphenous artery rings by 50%
Method: Rabbits are anesthetized and sacrificed by intravenous injection of thiopental sodium (about 50 mg/kg) and exsanguinated. The saphenous artery is removed and divided into rings 3 mm wide. The rings are mounted singly on in each case a pair of triangular hooks open at the end and made of 0.3 mm-thick special wire (Remanium®). Each ring is placed under an initial tension in 5 ml organ baths with Krebs-Henseleit solution which is at 37° C., is gassed with carbogen and has the following composition: NaCl 119 mM; KCl 4.8 mM; CaCl2×2 H2O 1 mM; MgSO4×7 H2O 1.4 mM; KH2PO4 1.2 mM; NaHCO3 25 mM; glucose 10 mM; bovine serum albumin 0.001%. The force of contraction is detected with Statham UC2 cells, amplified and digitized via A/D converters (DAS-1802 HC, Keithley Instruments, Munich) and recorded in parallel on chart recorders. Contractions are induced by addition of phenylephrine.
After several (generally 4) control cycles, the substance to be investigated is added in each further run in increasing dosage, and the level of the contraction achieved under the influence of the test substance is compared with the level of the contraction reached in the last preceding run. The concentration necessary to reduce the contraction reached in the preceding control by 50% is calculated from this (IC50). The standard application volume is 5 μl. The proportion of DMSO in the bath solution corresponds to 0.1%.

sGC = molecular target: T1, sGC (Rattus norvegicus, UniProt P20595); experiment: sGC-activating activity in the CHO reporter cell in vitro; type: cell-based
T1 construct: expressed in transfected cells; host or cells: CHO reporter cell line
T1 sequence (P20595 1-619): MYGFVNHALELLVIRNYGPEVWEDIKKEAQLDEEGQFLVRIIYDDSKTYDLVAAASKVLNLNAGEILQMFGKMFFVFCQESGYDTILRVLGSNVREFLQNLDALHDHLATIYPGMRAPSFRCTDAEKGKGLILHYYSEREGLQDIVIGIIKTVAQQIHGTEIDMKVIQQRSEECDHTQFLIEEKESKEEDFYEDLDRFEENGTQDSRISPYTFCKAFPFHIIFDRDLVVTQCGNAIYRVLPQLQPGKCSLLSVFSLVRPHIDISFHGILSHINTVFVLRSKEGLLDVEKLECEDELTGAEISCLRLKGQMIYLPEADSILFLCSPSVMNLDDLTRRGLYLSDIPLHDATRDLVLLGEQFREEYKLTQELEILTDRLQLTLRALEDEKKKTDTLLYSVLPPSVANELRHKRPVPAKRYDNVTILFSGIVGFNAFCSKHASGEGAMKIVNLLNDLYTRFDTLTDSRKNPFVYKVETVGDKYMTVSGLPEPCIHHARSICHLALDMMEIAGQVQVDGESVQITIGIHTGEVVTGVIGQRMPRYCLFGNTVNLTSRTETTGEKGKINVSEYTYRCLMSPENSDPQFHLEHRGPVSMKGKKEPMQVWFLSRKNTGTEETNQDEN
T1 sequence (P19686 1-690 partner): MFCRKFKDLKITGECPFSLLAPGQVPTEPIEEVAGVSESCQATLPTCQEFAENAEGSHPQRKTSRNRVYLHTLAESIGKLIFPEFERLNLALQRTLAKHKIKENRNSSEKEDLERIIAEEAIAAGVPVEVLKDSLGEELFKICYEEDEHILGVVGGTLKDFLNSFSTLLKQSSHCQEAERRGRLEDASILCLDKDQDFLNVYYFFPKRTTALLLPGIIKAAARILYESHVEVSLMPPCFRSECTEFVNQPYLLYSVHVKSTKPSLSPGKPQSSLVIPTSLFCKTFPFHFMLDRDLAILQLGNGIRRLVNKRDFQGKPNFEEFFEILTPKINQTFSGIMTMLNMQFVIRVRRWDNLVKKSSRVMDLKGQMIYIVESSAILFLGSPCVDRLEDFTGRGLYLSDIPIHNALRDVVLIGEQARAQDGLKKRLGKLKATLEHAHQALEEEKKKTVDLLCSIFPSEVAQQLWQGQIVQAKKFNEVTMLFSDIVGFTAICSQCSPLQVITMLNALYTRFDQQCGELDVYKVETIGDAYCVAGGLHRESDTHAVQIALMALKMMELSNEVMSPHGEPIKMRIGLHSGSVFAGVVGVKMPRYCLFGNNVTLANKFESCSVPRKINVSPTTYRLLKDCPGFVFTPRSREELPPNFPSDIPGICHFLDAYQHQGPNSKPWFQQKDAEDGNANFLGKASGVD
Method: The cellular action of the compounds according to the invention is determined at a recombinant guanylate cyclase reporter cell line, as described in F. Wunder et al., Anal. Biochem. 339, 104-112 (2005).

[1] = molecular target: T2, soluble guanylate cyclase (sGC) (Rattus norvegicus, UniProt P20595); experiment: Stimulation of sGC enzyme activity (PPi/luciferase detection); type: biochemical; details: sGC enzyme in vitro; for EC50: read-out: EC50 (concentration at 50% of maximum efficacy), activating action at the sGC enzyme
T2 construct: made in house; host or cells: baculovirus/Sf9 insect cells
T2 sequence (P20595 1-619): T1 sequence (P20595 1-619)
T2 sequence (P19686 1-690 partner): T1 sequence (P19686 1-690 partner)
Method: Soluble guanylate cyclase (sGC) converts on stimulation GTP into cGMP and pyrophosphate (PPi). PPi is detected with the aid of the assay described below. The signal produced in the assay increases as the reaction progresses and serves as a measure of the sGC enzyme activity under the given stimulation.
To carry out the assay, 29 μl of enzyme solution [0-10 nM soluble guanylate cyclase (prepared according to Honicka et al., J. Mol. Med. 77, 14-23 (1999)) in 50 mM TEA, 2 mM MgCl2, 0.1% BSA (fraction V), 0.005% Brij®, pH 7.5] are initially introduced into a microplate, and 1 μl of the substance to be tested (as a serially diluted solution in DMSO) is added. The mixture is incubated at room temperature for 10 min. Then 20 μl of detection mix [1.2 nM Firefly Luciferase (Photinus pyralis luciferase, Promega), 29 μM dehydroluciferin (prepared according to Bitler & McElroy, Arch. Biochem. Biophys. 72, 358 (1957)), 122 μM luciferin (Promega), 153 μM ATP (Sigma) and 0.4 mM DTT (Sigma) in 50 mM TEA, 2 mM MgCl2, 0.1% BSA (fraction V), 0.005% Brij®, pH 7.5] are added. The enzyme reaction is started by adding 20 μl of substrate solution [1.25 mM guanosine 5′-triphosphate (Sigma) in 50 mM TEA, 2 mM MgCl2, 0.1% BSA (fraction V), 0.005% Brij®, pH 7.5] and measured continuously in a luminometer. The extent of the stimulation by the substance to be tested can be determined relative to the signal of the unstimulated reaction.
The activation of heme-free guanylate cyclase is examined by addition of 25 μM of 1H-1,2,4-oxadiazolo[4,3-a]quinoxalin-1-one (ODQ) to the enzyme solution and subsequent incubation for 30 minutes and compared to the stimulation of the native enzyme.

Heme-containing sGC = molecular target: T3, Heme-containing sGC (Rattus norvegicus, UniProt P20595); experiment: Stimulation of recombinant soluble guanylate cyclase in vitro, heme-containing enzyme; type: biochemical; details: 0 μM Example 1
T3 construct: made in house; host or cells: baculovirus/Sf9 insect cells
T3 sequence (P20595 1-619): T1 sequence (P20595 1-619)
T3 sequence (P19686 1-690 partner): T1 sequence (P19686 1-690 partner)
Source text: Hoenicka, E. M. Becker, H. Apeler, T. Sirichoke, H. Schroeder, R. Gerzer and J.-P. Stasch, “Purified soluble guanylyl cyclase expressed in a baculovirus/Sf9 system: Stimulation by YC-1, nitric oxide, and carbon oxide”, J. Mol. Med. 77 (1999), 14-23. The heme-free guanylate cyclase is obtained by adding Tween 20 to the sample buffer (0.5% in the final concentration).
The activation of sGC by a test substance is reported as n-fold stimulation of the basal activity.

Row | Structure (SMILES) | MEC (minimum effective concentration), sGC-activating activity in the CHO reporter cell (sGC) | MEC (minimum effective concentration), activating action at the sGC enzyme [1] | EC50 [1] | other results
1 | CCC(C)C(C(=O)NCCCCC1(C(=O)O)CC1)c1ccc(CN2N=C(c3ccccc3)OCC2=O)cc1 (single isomer, unassigned; (+)) [Example 5, (+)-1-(4-{[3-methyl-2-{4-[(5-oxo-2-phenyl-5,6-dihydro-4H-1,3,4-oxadiazin-4-yl)methyl]phenyl}-pentanoyl]amino}butyl)cyclopropanecarboxylic acid] | 6.5 nM | 58 nM | 1500 nM | IC50 (saphenous artery): 297 nM
2 | CC(CCCCNC(=O)C(c1ccc(CN2N=C(c3ccccc3)OCC2=O)cc1)C1CCCC1)C(=O)O (single isomer, unassigned; (+)) [Example 10, (+)-6-{[2-cyclopentyl-2-{4-[(5-oxo-2-phenyl-5,6-dihydro-4H-1,3,4-oxadiazin-4-yl)methyl]phenyl}-acetyl]amino}-2-methylhexanoic acid] | 100 nM | – | – | –
3 | CC(CCCCNC(=O)C(c1ccc(CN2N=C(c3ccccc3)OCC2=O)cc1)C1CCCC1)C(=O)O (single isomer, unassigned; (+)) [Example 11, (+)-6-{[2-cyclopentyl-2-{4-[(5-oxo-2-phenyl-5,6-dihydro-4H-1,3,4-oxadiazin-4-yl)methyl]phenyl}-acetyl]amino}-2-methylhexanoic acid] | 100 nM | – | – | –
4 | O=C(NC/C=C/CC1(C(=O)O)CC1)C(c1ccc(CN2N=C(c3ccccc3)OCC2=O)cc1)C1CCCC1 (single isomer, unassigned; (-)) [Example 15] | 20 nM | – | – | –
5 | CCN(CC)[N+]([O-])=NO [DEA/NO, 2-(N,N-diethylamino)diazenolate 2-oxide, reference compound] | – | – | – | Stimulation (n-fold) of heme-containing sGC by DEA/NO alone (Heme-containing sGC; 0.1 μM DEA/NO): 22.2 n-fold
6 | O=C(O)CC1(CCCNC(=O)C(c2ccc(CN3N=C(c4ccccc4)OCC3=O)cc2)C2CCCC2)CC1 (stereo not drawn) [Example 18, (1-{3-[(Cyclopentyl{4-[(5-oxo-2-phenyl-5,6-dihydro-4H-1,3,4-oxadiazin-4-yl)methyl]phenyl}-acetyl)amino]propyl}cyclopropyl)acetic Acid] | 30 nM | – | – | –
7 | O=C(O)CCCCCNC(=O)C(c1ccc(CN2N=C(c3ccccc3)OCC2=O)cc1)C1CCCC1 (stereo not drawn) [Example 19, 6-[(Cyclopentyl{4-[(5-oxo-2-phenyl-5,6-dihydro-4H-1,3,4-oxadiazin-4-yl)methyl]phenyl}acetyl)-amino]hexanoic Acid] | 100 nM | – | – | –
8 | O=C(NCCCCC1(C(=O)O)CC1)C(c1ccc(Cn2nc(-c3ccccc3)ccc2=O)cc1)C1CCCC1 (stereo not drawn) [Example 20] | 3 nM | 13 nM | 650 nM | IC50 (saphenous artery): 70 nM
9 | CC(C(C(=O)NCCCCC1(C(=O)O)CC1)c1ccc(CN2N=C(c3ccccc3)OCC2=O)cc1)C(F)(F)F (stereo not drawn) [Example 24, 1-{4-[(4,4,4-trifluoro-3-methyl-2-{4-[(5-oxo-2-phenyl-5,6-dihydro-4H-1,3,4-oxadiazin-4-yl)methyl]-phenyl}-butanoyl)amino]butyl}cyclopropanecarboxylic acid] | 1 nM | 5.5 nM | 184 nM | –
10 | O=c1onc2cnc3ccccc3n12 [ODQ, 1H-1,2,4-oxadiazolo-(4,3a)-quinoxalin-1-one, reference compound] | – | – | – | Stimulation (n-fold) of heme-containing sGC by ODQ alone (Heme-containing sGC; 10 μM ODQ): 3.0 n-fold

From patent US8642592B2, “Oxo-heterocyclically substituted alkyl carboxylic acids and use thereof” (Bayer Intellectual Property GmbH, priority 2009, dated 2014)
